ChEMBL document CHEMBL1150452, “Kinetic characterization of a peptide inhibitor of trypsin isolated from a synthetic peptide combinatorial library” (Bioorg Med Chem Lett, 1995)

T1: Serine protease 1 (Bos taurus) (UniProt P00760)
T1 sequence (whole entry): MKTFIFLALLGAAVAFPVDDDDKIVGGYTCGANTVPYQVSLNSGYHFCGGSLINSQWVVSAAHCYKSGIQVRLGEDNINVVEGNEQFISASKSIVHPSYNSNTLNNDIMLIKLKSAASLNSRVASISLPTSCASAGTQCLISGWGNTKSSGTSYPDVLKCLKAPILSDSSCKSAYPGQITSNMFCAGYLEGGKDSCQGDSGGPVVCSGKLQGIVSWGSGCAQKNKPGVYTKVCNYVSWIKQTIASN

T2: Serine protease 1 (Bos taurus, UniProt P00760)
T2 sequence (P00760 whole entry): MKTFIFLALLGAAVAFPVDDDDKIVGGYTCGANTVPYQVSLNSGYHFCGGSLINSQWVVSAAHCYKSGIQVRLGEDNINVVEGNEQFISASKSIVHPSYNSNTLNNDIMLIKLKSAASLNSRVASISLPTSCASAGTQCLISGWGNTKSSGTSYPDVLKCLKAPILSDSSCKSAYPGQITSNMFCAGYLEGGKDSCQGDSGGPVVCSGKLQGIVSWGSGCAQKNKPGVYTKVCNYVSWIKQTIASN


What was measured:
[1] = target: T1, Serine protease 1 (Bos taurus)
Description: (§1) Trypsin inhibitory potency was evaluated from the catalytic constant Kcat.

Serine protease 1 [2] = target: T2, Serine protease 1; experiment: Inhibitory activity against trypsin mediated Tyr-Gly-Aer-p- nitroaniline
Serine protease 1 [3] = target: T2, Serine protease 1; experiment: Inhibitory activity against trypsin
[4] = target: T1, Serine protease 1 (Bos taurus); remark: listed apart in the source
Description: as §1

[5] = substrate: CC[C@H](C)[C@H](NC(=O)[C@H](CCCCN)NC(=O)CNC(=O)[C@H](Cc1ccc(O)cc1)NC(=O)[C@@H](N)Cc1ccc(O)cc1)C(=O)N[C@@H](Cc1ccc(O)cc1)C(=O)N[C@@H](CCCN=C(N)N)C(=O)N1CCC[C@H]1C(=O)N[C@@H](CC(=O)O)C(=O)N[C@@H](CCCCN)C(=O)N[C@@H](CCSC)C(=O)O; conditions: Bos taurus
Description: Trypsin inhibitory potency was evaluated from the Michaelis-Menten constant KM.

k cat [1] | Molecule | other results
1.3 s⁻¹ | CC[C@H](C)[C@H](NC(=O)[C@H](CCCCN)NC(=O)[C@H](C)NC(=O)CNC(=O)[C@H](Cc1ccc(O)cc1)NC(=O)[C@@H](N)Cc1ccc(O)cc1)C(=O)N[C@@H](C)C(=O)N[C@@H](CCCN=C(N)N)C(=O)N1CCC[C@@H]1C(=O)N[C@@H](CC(=O)O)C(=O)N[C@@H](CCCCN)C(=O)N[C@@H](CCSC)C(=O)O | 
0.6 s⁻¹ | CC[C@H](C)[C@H](NC(=O)[C@H](CCCCN)NC(=O)[C@H](C)NC(=O)CNC(=O)[C@H](Cc1ccc(O)cc1)NC(=O)[C@@H](N)Cc1ccc(O)cc1)C(=O)N[C@@H](Cc1ccc(O)cc1)C(=O)N[C@@H](C)C(=O)N1CCC[C@@H]1C(=O)N[C@@H](CC(=O)O)C(=O)N[C@@H](CCCCN)C(=O)N[C@@H](CCSC)C(=O)O | 
30 s⁻¹ | CC[C@H](C)[C@H](NC(=O)[C@H](CCCN=C(N)N)NC(=O)[C@H](C)NC(=O)CNC(=O)[C@H](Cc1ccc(O)cc1)NC(=O)[C@@H](N)Cc1ccc(O)cc1)C(=O)N[C@@H](Cc1ccc(O)cc1)C(=O)N[C@@H](CCCN=C(N)N)C(=O)N1CCC[C@@H]1C(=O)N[C@@H](CC(=O)O)C(=O)N[C@@H](CCCCN)C(=O)N[C@@H](CCSC)C(=O)O | 
87 s⁻¹ | H-YYGAKAYRPDKM-OH | 
 | H-YYGAKIYRPDKM-OH | Ki (Serine protease 1 [2]): 9.4 µM; IC50 (Serine protease 1 [3]): 10 µM
 | H-YYGKIYRPDKM-OH | k cat [4]: 0.73 s⁻¹
 | Serine protease 1 (Bos taurus), P00760 (protein) MKTFIFLALLGAAVAFPVDDDDKIVGGYTCGANTVPYQVSLNSGYHFCGGSLINSQWVVSAAHCYKSGIQVRLGEDNINVVEGNEQFISASKSIVHPSYNSNTLNNDIMLIKLKSAASLNSRVASISLPTSCASAGTQCLISGWGNTKSSGTSYPDVLKCLKAPILSDSSCKSAYPGQITSNMFCAGYLEGGKDSCQGDSGGPVVCSGKLQGIVSWGSGCAQKNKPGVYTKVCNYVSWIKQTIASN | Km [5]: 24 mM
